Measured values as given in US20240228506A1, “RIPK1 INHIBITORS AND METHODS OF USE” (Merck Sharp & Dohme LLC, priority 2021, published 2024).

Each molecule was assayed against T1, GST-RIPK1 (recombinant GST-RIPK1 kinase domain (residues 1-327)) (Homo sapiens, UniProt Q13546) (assay: RIPK1-ADP-Glo enzymatic assay). Conditions: 25 nM GST-RIPK1, 300 μM ATP, 3 μM dephosphorylated-MBP; 30 minutes pre-incubation, 150 minutes reaction; ten-point titration.
T1 construct: recombinant GST-RIPK1 kinase domain (residues 1-327) enzyme; made in house; host or cells: baculovirus-transfected Sf21 insect cells
T1 sequence (Q13546 1-327): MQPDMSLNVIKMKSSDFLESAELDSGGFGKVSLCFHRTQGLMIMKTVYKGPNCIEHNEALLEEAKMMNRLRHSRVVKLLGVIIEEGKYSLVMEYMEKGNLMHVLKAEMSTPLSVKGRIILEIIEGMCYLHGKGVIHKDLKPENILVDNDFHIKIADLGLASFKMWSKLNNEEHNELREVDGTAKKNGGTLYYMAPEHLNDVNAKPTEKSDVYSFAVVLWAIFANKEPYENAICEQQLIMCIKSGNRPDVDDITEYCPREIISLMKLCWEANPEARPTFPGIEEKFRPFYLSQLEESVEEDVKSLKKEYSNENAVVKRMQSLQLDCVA
Type: biochemical
Experimental: The enzymatic activity of RIPK1 is measured using an assay derived from ADP-Glo kit (Promega™), which provides a luminescent-based ADP detection system. Specifically, the ADP generated by RIPK1 kinase is proportionally detected as luminescent signals in a homogenous fashion. In this context, the assessment of the inhibitory effect of small molecules (EC50) is measured by the effectiveness of the compounds to inhibit the ATP to ADP conversion by RIPK1. In this assay, the potency (EC50) of each compound was determined from a ten-point (1:3 serial dilution; top compound concentration of 100000 nM) titration curve using the following outlined procedure. To each well of a white ProxiPlus 384 well-plate, […] of compound (1% DMSO in final assay volume of 3 μL) was dispensed, followed by the addition of 2 μL of 1× assay buffer (25 mM Hepes 7.3, 20 mM MgCl2, 50 mM NaCl, 1 mM DTT, 0.005% Tween20, and 0.02% BSA) containing 37.5 nM of GST-RIPK1 (recombinant GST-RIPK1 kinase domain (residues 1-327) enzyme produced from baculovirus-transfected Sf21 cells: MW=62 kDa). Plates were placed in an ambient temperature humidified chamber for a 30 minutes pre-incubation with compound. Subsequently, each reaction was initiated by the addition of 1 μL 1×assay buffer containing 900 μM ATP and […]. The final reaction in each well of 3 μL consists of 25 nM of GST-RIPK1, 300 μM ATP, and 3 μM dephosphorylated-MBP. Kinase reactions were allowed to proceed for 150 minutes prior to adding ADP-Glo reagents per Promega's outlined kit protocol. Dose-response curves were generated by plotting percent effect (% product conversion; Y-axis) vs. Log10 compound concentrations (X-axis). EC50 values were calculated using a non-linear regression, four-parameters sigmoidal dose-response model.

Q: For `CC(C)(C(=O)N1C[C@@H]2C[C@H]1c1cncc(C#N)c1O2)C(F)(F)F` [Compound 1-9, (2S,5S)-4-(3,3,3-trifluoro-2,2-dimethylpropanoyl)-2,3,4,5-tetrahydro-2,5-methanopyrido[3,4-f][1,4]oxazepine-9-carbonitrile], which IC50 is on record?
A: 20 nM

Q: `CC(F)(F)C(C)(C)C(=O)N1C[C@@H]2C[C@H]1c1cncc(C#N)c1O2` [Compound 1-10, (2S,5S)-4-(3,3-difluoro-2,2-dimethylbutanoyl)-2,3,4,5-tetrahydro-2,5-methanopyrido[3,4-f][1,4]oxazepine-9-carbonitrile] was tested. Which IC50 did it give?
A: 21 nM

Q: How did the IC50 turn out when `N#Cc1cncc2c1O[C@H]1C[C@@H]2N(C(=O)C2(C(F)(F)F)CCC2)C1` [Compound 1-11, (2S,5S)-4-[1-(trifluoromethyl)cyclobutane-1-carbonyl]-2,3,4,5-tetrahydro-2,5-methanopyrido[3,4-f][1,4]oxazepine-9-carbonitrile] was run?
A: 62 nM

Q: For `CC1(C(=O)N2C[C@@H]3C[C@H]2c2cncc(C#N)c2O3)CCC1` [Compound 1-12, (2S,5S)-4-(1-methylcyclobutane-1-carbonyl)-2,3,4,5-tetrahydro-2,5-methanopyrido[3,4-f][1,4]oxazepine-9-carbonitrile], which IC50 is on record?
A: 47 nM

Q: For `N#Cc1cncc2c1O[C@H]1C[C@@H]2N(C(=O)C2(C(F)(F)F)CCCC2)C1` [Compound 1-13, (2S,5S)-4-[1-(trifluoromethyl)cyclopentane-1-carbonyl]-2,3,4,5-tetrahydro-2,5-methanopyrido[3,4-f][1,4]oxazepine-9-carbonitrile], which IC50 is on record?
A: 130 nM

Q: `N#Cc1cncc2c1O[C@H]1C[C@@H]2N(C(=O)C2(C(F)F)CCCC2)C1` [Compound 1-14, (2S,5S)-4-[1-(difluoromethyl)cyclopentane-1-carbonyl]-2,3,4,5-tetrahydro-2,5-methanopyrido[3,4-f][1,4]oxazepine-9-carbonitrile] was tested. Which IC50 did it give?
A: 51 nM

Q: How did the IC50 turn out when `CC(C)(CC(F)F)C(=O)N1C[C@@H]2C[C@H]1c1cncc(C#N)c1O2` [Compound 1-15, (2S,5S)-4-(4,4-difluoro-2,2-dimethylbutanoyl)-2,3,4,5-tetrahydro-2,5-methanopyrido[3,4-f][1,4]oxazepine-9-carbonitrile] was run?
A: 99 nM

Q: `Cc1ncc2c(c1C#N)O[C@H]1C[C@@H]2N(C(=O)C(C)(C)C(F)F)C1` [Compound 1-18, (2S,5S)-4-(3,3-difluoro-2,2-dimethylpropanoyl)-8-methyl-2,3,4,5-tetrahydro-2,5-methanopyrido[3,4-f][1,4]oxazepine-9-carbonitrile] was tested. Which IC50 did it give?
A: 84 nM

Q: Which IC50 does the source give for `N#Cc1cncc2c1O[C@H]1C[C@@H]2N(C(=O)C23CCC(C(F)F)(CC2)C3)C1` [Compound 1-19, (2S,5S)-4-[4-(difluoromethyl)bicyclo[2.2.1]heptane-1-carbonyl]-2,3,4,5-tetrahydro-2,5-metanopyrido[3,4-f][1,4]oxazepine-9-carbonitrile] here?
A: 24 nM

Q: `CC(C)(CC#N)C(=O)N1C[C@@H]2C[C@H]1c1cncc(C#N)c1O2` [Compound 1-20, (2S,5S)-4-(3-cyano-2,2-dimethylpropanoyl)-2,3,4,5-tetrahydro-2,5-methanopyrido[3,4-f][1,4]oxazepine-9-carbonitrile] was tested. Which IC50 did it give?
A: 89 nM

Q: For `CCC(C#N)(CC)C(=O)N1C[C@@H]2C[C@H]1c1cncc(C#N)c1O2` [Compound 1-21, (2S,5S)-4-(2-cyano-2-ethylbutanoyl)-2,3,4,5-tetrahydro-2,5-methanopyrido[3,4-f][1,4]oxazepine-9-carbonitrile], which IC50 is on record?
A: 366 nM

Q: How did the IC50 turn out when `CC(F)(F)C1(C(=O)N2C[C@@H]3C[C@H]2c2cncc(C#N)c2O3)CCC1` [Compound 1-22, (2S,5S)-4-[1-(1,1-difluoroethyl)cyclobutane-1-carbonyl]-2,3,4,5-tetrahydro-2,5-methanopyrido[3,4-f][1,4]oxazepine-9-carbonitrile] was run?
A: 55 nM

Q: Which IC50 does the source give for `N#Cc1cncc2c1O[C@H]1C[C@@H]2N(C(=O)C2(C(F)F)CCC2)C1` [Compound 1-23, (2S,5S)-4-[1-(difluoromethyl)cyclobutane-1-carbonyl]-2,3,4,5-tetrahydro-2,5-methanopyrido[3,4-f][1,4]oxazepine-9-carbonitrile] here?
A: 88 nM

Q: For `COC(C)(C)C(=O)N1C[C@@H]2C[C@H]1c1cncc(C#N)c1O2` [Compound 1-24, (2S,5S)-4-(2-methoxy-2-methylpropanoyl)-2,3,4,5-tetrahydro-2,5-methanopyrido[3,4-f][1,4]oxazepine-9-carbonitrile], which IC50 is on record?
A: 288 nM

Q: Which IC50 does the source give for `CC(C)(C(=O)N1C[C@@H]2C[C@H]1c1cncc(C#N)c1O2)C1CCC1` [Compound 1-25, (2S,5S)-4-(2-cyclobutyl-2-methylpropanoyl)-2,3,4,5-tetrahydro-2,5-methanopyrido[3,4-f][1,4]oxazepine-9-carbonitrile] here?
A: 119 nM

Q: Which IC50 does the source give for `N#Cc1cncc2c1O[C@H]1C[C@@H]2N(C(=O)C23CCC(CC2)OC3)C1` [Compound 1-26, (2S,5S)-4-(2-oxabicyclo[2.2.2]octane-4-carbonyl)-2,3,4,5-tetrahydro-2,5-methanopyrido[3,4-f][1,4]oxazepine-9-carbonitrile] here?
A: 313 nM

Q: Which IC50 does the source give for `CC(F)(F)C1(C(=O)N2C[C@@H]3C[C@H]2c2cncc(C#N)c2O3)CC1` [Compound 1-27, (2S,5S)-4-[1-(1,1-difluoroethyl)cyclopropane-1-carbonyl]-2,3,4,5-tetrahydro-2,5-methanopyrido[3,4-f][1,4]oxazepine-9-carbonitrile] here?
A: 221 nM

Q: For `CC1(C(=O)N2C[C@@H]3C[C@H]2c2cncc(C#N)c2O3)CCC(F)(F)C1` (stereo partly drawn) [Compound 1-30, (2S,5S)-4-(3,3-difluoro-1-methylcyclopentane-1-carbonyl)-2,3,4,5-tetrahydro-2,5-methanopyrido[3,4-f][1,4]oxazepine-9-carbonitrile], which IC50 is on record?
A: 66 nM

Q: Which IC50 does the source give for `N#Cc1cncc2c1O[C@H]1C[C@@H]2N(C(=O)C23CCC(C2)C3)C1` [Compound 1-31, (2S,5S)-4-(bicyclo[2.1.1]hexane-1-carbonyl)-2,3,4,5-tetrahydro-2,5-methanopyrido[3,4-f][1,4]oxazepine-9-carbonitrile] here?
A: 54 nM

Q: For `CC(C)C(C)(C)C(=O)N1C[C@@H]2C[C@H]1c1cncc(C#N)c1O2` [Compound 1-34, (2S,5S)-4-(2,2,3-trimethylbutanoyl)-2,3,4,5-tetrahydro-2,5-methanopyrido[3,4-f][1,4]oxazepine-9-carbonitrile], which IC50 is on record?
A: 24 nM

Q: With `CC(C)(CC(F)(F)F)C(=O)N1C[C@@H]2C[C@H]1c1cncc(C#N)c1O2` [Compound 1-35, (2S,5S)-4-(4,4,4-trifluoro-2,2-dimethylbutanoyl)-2,3,4,5-tetrahydro-2,5-methanopyrido[3,4-f][1,4]oxazepine-9-carbonitrile] as the molecule, how does the IC50 read?
A: 483 nM

Q: How did the IC50 turn out when `CC1(C(=O)N2C[C@@H]3C[C@H]2c2cncc(C#N)c2O3)CCC(F)(F)CC1` [Compound 1-36, (2S,5S)-4-(4,4-difluoro-1-methylcyclohexane-1-carbonyl)-2,3,4,5-tetrahydro-2,5-methanopyrido[3,4-f][1,4]oxazepine-9-carbonitrile] was run?
A: 973 nM

Q: How did the IC50 turn out when `CC(C)(CF)C(=O)N1C[C@@H]2C[C@H]1c1cncc(C#N)c1O2` [Compound 1-42, (2S,5S)-4-(3-fluoro-2,2-dimethylpropanoyl)-2,3,4,5-tetrahydro-2,5-methanopyrido[3,4-f][1,4]oxazepine-9-carbonitrile] was run?
A: 114 nM

Q: With `CCC(F)(F)C(C)(C)C(=O)N1C[C@@H]2C[C@H]1c1cncc(C#N)c1O2` [Compound 1-43, (2S,5S)-4-(3,3-difluoro-2,2-dimethylpentanoyl)-2,3,4,5-tetrahydro-2,5-methanopyrido[3,4-f][1,4]oxazepine-9-carbonitrile] as the molecule, how does the IC50 read?
A: 491 nM

Q: Which IC50 does the source give for `N#Cc1cncc2c1O[C@H]1C[C@@H]2N(C(=O)C2(CC(F)F)CCC2)C1` [Compound 1-44, (2S,5S)-4-[1-(2,2-difluoroethyl)cyclobutane-1-carbonyl]-2,3,4,5-tetrahydro-2,5-methanopyrido[3,4-f][1,4]oxazepine-9-carbonitrile] here?
A: 254 nM

Q: For `N#Cc1cncc2c1O[C@H]1C[C@@H]2N(C(=O)C2CC3(CCCC3)C2)C1` [Compound 1-45, (2S,5S)-4-(spiro[3.4]octane-2-carbonyl)-2,3,4,5-tetrahydro-2,5-methanopyrido[3,4-f][1,4]oxazepine-9-carbonitrile], which IC50 is on record?
A: 330 nM
